{"source": "paper PMC13476069", "about": "“Cryo-EM structure of the bicarbonate receptor GPR30” (eLife, 2026)", "key": {"GPR30 E115^2.61 mutant": {"tested_on": "GPR30 E115^2.61 mutant", "settings": "effect of E115^2.61 mutation; ref Jo-Watanabe et al., 2024; cited from earlier work"}, "mock HEK293 cells": {"tested_on": "mock HEK293 cells", "settings": "mock stable HEK293 cells; NaHCO3; normalized to 50 µM ATP; four-parameter fit", "procedure": "(§1) HEK293A cells (Thermo Fisher Scientific, Cell lines are authenticated by the supplier. No additional authentication was performed by the authors in this study. Mycoplasma contamination is not tested.) were maintained at 37°C and 5% CO2. […] Stable cell lines were established through antibiotic drug selection. The HEK293A cells were transfected with the N-terminal HA-tagged wild-type and mutant Gpr30 and maintained in the culture medium containing 1 mg/ml of G418.\n(§2) Stable HEK293 cells (2×10^4 cells/well) were seeded into a black wall and clear bottom 96-well plate 24 hr before the assay. […] The cells were washed twice with HEPES buffer. The cells were stimulated with indicated concentrations of NaHCO3 and 50 µM ATP at 37°C and 0.03% CO2. The fluorescence intensity was analyzed using FlexStation 3 (Molecular Devices, Ex/Em = 490/525 nm). The difference between the maximum and minimum fluorescent values during 15–60 s was normalized by those with ATP stimulation. Nonlinear regression (four-parameter) was used for curve fitting, and EC50 and Top (maximum response) were calculated.\n(§3) Nonlinear regression (four-parameter) was used for curve-fitting over the data shown in Figure 3F, and EC50 and Top (maximum response) were calculated. The values of cell surface and total expression are derived from Figure 3.—figure supplement 1 and 3, respectively."}, "[1]": {"target": "T1, human GPR30 Q138^3.33A mutant (Homo sapiens, UniProt Q99527, Q138A)", "T1 sequence (Q99527 whole entry Q138A)": "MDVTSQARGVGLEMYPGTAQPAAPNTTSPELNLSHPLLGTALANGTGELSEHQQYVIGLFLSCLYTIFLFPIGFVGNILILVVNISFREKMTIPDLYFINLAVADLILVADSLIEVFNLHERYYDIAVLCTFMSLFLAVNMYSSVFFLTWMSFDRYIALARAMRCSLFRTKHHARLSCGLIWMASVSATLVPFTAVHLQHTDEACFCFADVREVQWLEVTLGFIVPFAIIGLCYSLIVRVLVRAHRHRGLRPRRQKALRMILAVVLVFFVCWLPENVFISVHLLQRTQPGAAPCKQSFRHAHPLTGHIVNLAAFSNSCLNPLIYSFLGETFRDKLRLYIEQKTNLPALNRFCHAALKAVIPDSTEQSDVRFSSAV", "settings": "effect of Q138^3.33 mutation; ref Jo-Watanabe et al., 2024; cited from earlier work"}, "GPR30 H307^7.36 mutant": {"tested_on": "GPR30 H307^7.36 mutant", "settings": "effect of H307^7.36 mutation; ref Jo-Watanabe et al., 2024; cited from earlier work"}, "[2]": {"target": "human GPR30 D111^2.56A mutant (Homo sapiens, UniProt Q99527, D111A)", "sequence (Q99527 whole entry D111A)": "as the sequence (Q99527 whole entry Q138A) above, with D111A, A138Q counted along it", "settings": "stable HEK293, HA-tagged D111^2.56A, NaHCO3, four-parameter fit", "description": "(§4) Human Gpr30 cDNA was obtained from human hepatoblastoma-derived HepG2 cells. The coding sequences of human Gpr30 were inserted into the multi-cloning site of the plasmid vector pCXN2, which was generated in our laboratory via modification of pCAGGS, between the KpnI and EcoRI sites. The […] HA-tagged Gpr30 was amplified using a reverse primer containing the HA sequence. One amino acid mutation of human GPR30 was generated as follows: the targeted amino acid was changed to alanine (GCC) using a two-step PCR method with the QuikChange Primer Design Program by Agilent (https://www.agilent.com/store/primerDesignProgram.jsp), and the coding sequence with each mutation was inserted into the multi-cloning site of pCXN2 between the KpnI and EcoRI sites. The mutations generated were D111A, E121A, R122A, D125A, S134A, Q138A, D210A, Q215A, E218A, N276A, Q296A, C207A, P71A, and H307A.\nas §1, §2, §3"}, "[3]": {"target": "human GPR30 Q215^5.39A mutant (Homo sapiens, UniProt Q99527, Q215A)", "sequence (Q99527 whole entry Q215A)": "as the sequence (Q99527 whole entry Q138A) above, with A138Q, Q215A counted along it", "settings": "stable HEK293, HA-tagged Q215^5.39A, NaHCO3, four-parameter fit", "description": "as §4, §1, §2, §3"}, "[4]": {"target": "human GPR30 N276^6.52A mutant (Homo sapiens, UniProt Q99527, N276A)", "sequence (Q99527 whole entry N276A)": "as the sequence (Q99527 whole entry Q138A) above, with A138Q, N276A counted along it", "settings": "stable HEK293, HA-tagged N276^6.52A, NaHCO3, four-parameter fit", "description": "as §4, §1, §2, §3"}, "[5]": {"target": "human GPR30 P71^1.44A mutant (Homo sapiens, UniProt Q99527, P71A)", "sequence (Q99527 whole entry P71A)": "as the sequence (Q99527 whole entry Q138A) above, with P71A, A138Q counted along it", "description": "as §4, §1, §2, §3"}, "[6]": {"target": "T2, human GPR30 wild-type (WT) (Homo sapiens, UniProt Q99527)", "T2 sequence (Q99527 whole entry)": "as the sequence (Q99527 whole entry Q138A) above, with A138Q counted along it", "settings": "stable HEK293, HA-tagged WT GPR30, NaHCO3, four-parameter fit", "description": "as §4, §1, §2, §3"}, "[7]": {"target": "human GPR30 E218^5.42A mutant (Homo sapiens, UniProt Q99527, E218A)", "sequence (Q99527 whole entry E218A)": "as the sequence (Q99527 whole entry Q138A) above, with A138Q, E218A counted along it", "settings": "stable HEK293, HA-tagged E218^5.42A, NaHCO3, four-parameter fit", "description": "as §4, §1, §2, §3"}, "[8]": {"target": "T1, human GPR30 Q138^3.33A mutant", "description": "as §4, §1, §2, §3"}, "[9]": {"target": "human GPR30 D210^ECL2A mutant (Homo sapiens, UniProt Q99527, D210A)", "sequence (Q99527 whole entry D210A)": "as the sequence (Q99527 whole entry Q138A) above, with A138Q, D210A counted along it", "description": "as §4, §1, §2, §3"}, "[10]": {"target": "human GPR30 C207^ECL2A mutant (Homo sapiens, UniProt Q99527, C207A)", "sequence (Q99527 whole entry C207A)": "as the sequence (Q99527 whole entry Q138A) above, with A138Q, C207A counted along it", "description": "as §4, §1, §2, §3"}, "[11]": {"target": "human GPR30 Q296^ECL3A mutant (Homo sapiens, UniProt Q99527, Q296A)", "sequence (Q99527 whole entry Q296A)": "as the sequence (Q99527 whole entry Q138A) above, with A138Q, Q296A counted along it", "settings": "stable HEK293, HA-tagged Q296^ECL3A, NaHCO3, four-parameter fit", "description": "as §4, §1, §2, §3"}, "[12]": {"target": "human GPR30 D125^ECL1A mutant (Homo sapiens, UniProt Q99527, D125A)", "sequence (Q99527 whole entry D125A)": "as the sequence (Q99527 whole entry Q138A) above, with D125A, A138Q counted along it", "description": "as §4, §1, §2, §3"}, "[13]": {"target": "human GPR30 S134^3.29A mutant (Homo sapiens, UniProt Q99527, S134A)", "sequence (Q99527 whole entry S134A)": "as the sequence (Q99527 whole entry Q138A) above, with S134A, A138Q counted along it", "settings": "stable HEK293, HA-tagged S134^3.29A, NaHCO3, four-parameter fit", "description": "as §4, §1, §2, §3"}, "[14]": {"target": "human GPR30 R122^ECL1A mutant (Homo sapiens, UniProt Q99527, R122A)", "sequence (Q99527 whole entry R122A)": "as the sequence (Q99527 whole entry Q138A) above, with R122A, A138Q counted along it", "settings": "stable HEK293, HA-tagged R122^ECL1A, NaHCO3, four-parameter fit", "description": "as §4, §1, §2, §3"}, "[15]": {"target": "human GPR30 E121^ECL1A mutant (Homo sapiens, UniProt Q99527, E121A)", "sequence (Q99527 whole entry E121A)": "as the sequence (Q99527 whole entry Q138A) above, with E121A, A138Q counted along it", "settings": "stable HEK293, HA-tagged E121^ECL1A, NaHCO3, four-parameter fit", "description": "as §4, §1, §2, §3"}, "[16]": {"target": "T2, human GPR30 wild-type (WT)", "settings": "physiological concentration of bicarbonate ions; ref Jo-Watanabe et al., 2024; cited from earlier work"}, "[17]": {"settings": "Q138^3.33A vs wild-type, calcium assay"}, "[18]": {"settings": "stable HEK293, HA-tagged Q138^3.33A, NaHCO3, four-parameter fit"}, "[19]": {"settings": "stable HEK293, HA-tagged D210^ECL2A, NaHCO3, four-parameter fit"}, "[20]": {"settings": "stable HEK293, HA-tagged D125^ECL1A, NaHCO3, four-parameter fit"}}, "data": [{"smiles": "O=C(O)O", "note": "[bicarbonate]", "values": [{"measurement": "bicarbonate-dependent calcium response", "setting": "GPR30 E115^2.61 mutant", "value": "abolish"}, {"measurement": "Top (maximum response)", "setting": "mock HEK293 cells", "value": 0.08132}, {"measurement": "bicarbonate-dependent calcium response", "setting": "[1]", "value": "abolish"}, {"measurement": "bicarbonate-dependent calcium response", "setting": "GPR30 H307^7.36 mutant", "value": "abolish"}, {"measurement": "EC50", "setting": "[2]", "value": 2.35, "unit": "mM"}, {"measurement": "LogEC50", "setting": "[2]", "value": 0.3703}, {"measurement": "Top (maximum response)", "setting": "[2]; normalized to 50 µM ATP", "value": 1.244}, {"measurement": "EC50", "setting": "[3]", "value": 4.51, "unit": "mM"}, {"measurement": "LogEC50", "setting": "[3]", "value": 0.6544}, {"measurement": "Top (maximum response)", "setting": "[3]; normalized to 50 µM ATP", "value": 0.8471}, {"measurement": "EC50", "setting": "[4]", "value": 2.89, "unit": "mM"}, {"measurement": "LogEC50", "setting": "[4]", "value": 0.4605}, {"measurement": "Top (maximum response)", "setting": "[4]; normalized to 50 µM ATP", "value": 0.948}, {"measurement": "bicarbonate-dependent calcium responses", "setting": "[5]; effect of P71^1.44A mutation, stable HEK293", "value": "abolished"}, {"measurement": "Top (maximum response)", "setting": "[5]; stable HEK293, HA-tagged P71^1.44A, NaHCO3, normalized to 50 µM ATP, four-parameter fit", "value": 0.1079}, {"measurement": "EC50", "setting": "[6]", "value": 3.83, "unit": "mM"}, {"measurement": "LogEC50", "setting": "[6]", "value": 0.5838}, {"measurement": "Top (maximum response)", "setting": "[6]; normalized to 50 µM ATP", "value": 1.155}, {"measurement": "EC50", "setting": "[7]", "value": 3.72, "unit": "mM"}, {"measurement": "LogEC50", "setting": "[7]", "value": 0.5701}, {"measurement": "Top (maximum response)", "setting": "[7]; normalized to 50 µM ATP", "value": 0.9426}, {"measurement": "EC50 compared with wild-type GPR30", "setting": "[8]; [17]", "value": "higher"}, {"measurement": "maximum response relative to GPR30 wild-type", "setting": "[8]; [17]", "value": "one-third"}, {"measurement": "reactivity to bicarbonate (calcium response)", "setting": "[8]; effect of Q138^3.33A mutation, stable HEK293", "value": "reduced reactivity"}, {"measurement": "EC50", "setting": "[8]; [18]", "value": 10.8, "unit": "mM"}, {"measurement": "LogEC50", "setting": "[8]; [18]", "value": 1.033}, {"measurement": "Top (maximum response)", "setting": "[8]; stable HEK293, HA-tagged Q138^3.33A, NaHCO3, normalized to 50 µM ATP, four-parameter fit", "value": 0.4166}, {"measurement": "maximum response relative to GPR30 wild-type", "setting": "[9]; D210^ECL2A vs wild-type, calcium assay", "value": "half"}, {"measurement": "reactivity to bicarbonate (calcium response)", "setting": "[9]; effect of D210^ECL2A mutation, stable HEK293", "value": "reduced reactivity"}, {"measurement": "EC50", "setting": "[9]; [19]", "value": 5.41, "unit": "mM"}, {"measurement": "LogEC50", "setting": "[9]; [19]", "value": 0.7335}, {"measurement": "Top (maximum response)", "setting": "[9]; stable HEK293, HA-tagged D210^ECL2A, NaHCO3, normalized to 50 µM ATP, four-parameter fit", "value": 0.6256}, {"measurement": "bicarbonate-dependent calcium responses", "setting": "[10]; effect of C207^ECL2A mutation, stable HEK293", "value": "abolished"}, {"measurement": "Top (maximum response)", "setting": "[10]; stable HEK293, HA-tagged C207^ECL2A, NaHCO3, normalized to 50 µM ATP, four-parameter fit", "value": 0.06277}, {"measurement": "EC50", "setting": "[11]", "value": 3.09, "unit": "mM"}, {"measurement": "LogEC50", "setting": "[11]", "value": 0.4903}, {"measurement": "Top (maximum response)", "setting": "[11]; normalized to 50 µM ATP", "value": 0.9637}, {"measurement": "bicarbonate-dependent calcium responses", "setting": "[12]; effect of D125^ECL1A mutation, stable HEK293", "value": "abolished"}, {"measurement": "EC50", "setting": "[12]; [20]", "value": "Unstable"}, {"measurement": "LogEC50", "setting": "[12]; [20]", "value": "Unstable"}, {"measurement": "Top (maximum response)", "setting": "[12]; stable HEK293, HA-tagged D125^ECL1A, NaHCO3, normalized to 50 µM ATP, four-parameter fit", "value": 0.0868}, {"measurement": "EC50", "setting": "[13]", "value": 4.97, "unit": "mM"}, {"measurement": "LogEC50", "setting": "[13]", "value": 0.6966}, {"measurement": "Top (maximum response)", "setting": "[13]; normalized to 50 µM ATP", "value": 0.8079}, {"measurement": "EC50", "setting": "[14]", "value": 3.46, "unit": "mM"}, {"measurement": "LogEC50", "setting": "[14]", "value": 0.5393}, {"measurement": "Top (maximum response)", "setting": "[14]; normalized to 50 µM ATP", "value": 0.877}, {"measurement": "EC50", "setting": "[15]", "value": 4.71, "unit": "mM"}, {"measurement": "LogEC50", "setting": "[15]", "value": 0.6733}, {"measurement": "Top (maximum response)", "setting": "[15]; normalized to 50 µM ATP", "value": 0.9457}, {"measurement": "activation of GPR30, Gq-coupled calcium responses", "setting": "[16]", "value": "activates"}]}]}
